From ChEMBL document CHEMBL1150972, “Biochemical and cellular effects of c-Src kinase-selective pyrido[2, 3-d]pyrimidine tyrosine kinase inhibitors” (Biochem Pharmacol, 2000) come the findings set out here.

In assay [1] the target is Proto-oncogene tyrosine-protein kinase Src (Homo sapiens, UniProt P12931). Kind of assay: Inhibition of c-Src.
The test system of assay [2] is HT-29. Kind of assay: Inhibition of HT-29 cell proliferation. The format is functional, cell-based. Conditions: Homo sapiens.
For assay [3], the system named is HT-29. Kind of assay: Inhibition of HT-29 clonogenic growth in soft agar with pretreatment. Format: functional, cell-based. To be noted: Homo sapiens.
Assay [4] addresses Platelet-derived growth factor receptor (Homo sapiens, UniProt P09619+P16234). Description: Inhibition of PDGFR. The format is protein-complex assay.
The test system of another assay is NIH3T3. Kind of assay: Inhibition of 3H-thymidine incorporation into NIH3T3 cells. Format: functional, cell-based. Conditions: Mus musculus.
The subject of assay [5] is HCT-8. Description: Inhibition of HCT-8 cell proliferation. Format: functional, cell-based. To be noted: Homo sapiens.
The subject of assay [6] is SW-620. Kind of assay: Inhibition of SW-620 cell proliferation. Format: functional, cell-based. Conditions: Homo sapiens.
Assay [7] is filed under the species Homo sapiens. Description: Selectivity for c-Src compared to PDGFR.
Assay [8] deals with HCT-8. Description: Inhibition of HCT-8 clonogenic growth in soft agar with pretreatment. The format is functional, cell-based. To be noted: Homo sapiens.
Assay [9] has as its system HCT-8. Kind of assay: Inhibition of HCT-8 clonogenic growth in soft agar without pretreatment. Conditions: Homo sapiens. Format: functional, cell-based.
The target of assay [10] is Epidermal growth factor receptor (Homo sapiens, UniProt P00533).
Sequence of Epidermal growth factor receptor (P00533 whole entry): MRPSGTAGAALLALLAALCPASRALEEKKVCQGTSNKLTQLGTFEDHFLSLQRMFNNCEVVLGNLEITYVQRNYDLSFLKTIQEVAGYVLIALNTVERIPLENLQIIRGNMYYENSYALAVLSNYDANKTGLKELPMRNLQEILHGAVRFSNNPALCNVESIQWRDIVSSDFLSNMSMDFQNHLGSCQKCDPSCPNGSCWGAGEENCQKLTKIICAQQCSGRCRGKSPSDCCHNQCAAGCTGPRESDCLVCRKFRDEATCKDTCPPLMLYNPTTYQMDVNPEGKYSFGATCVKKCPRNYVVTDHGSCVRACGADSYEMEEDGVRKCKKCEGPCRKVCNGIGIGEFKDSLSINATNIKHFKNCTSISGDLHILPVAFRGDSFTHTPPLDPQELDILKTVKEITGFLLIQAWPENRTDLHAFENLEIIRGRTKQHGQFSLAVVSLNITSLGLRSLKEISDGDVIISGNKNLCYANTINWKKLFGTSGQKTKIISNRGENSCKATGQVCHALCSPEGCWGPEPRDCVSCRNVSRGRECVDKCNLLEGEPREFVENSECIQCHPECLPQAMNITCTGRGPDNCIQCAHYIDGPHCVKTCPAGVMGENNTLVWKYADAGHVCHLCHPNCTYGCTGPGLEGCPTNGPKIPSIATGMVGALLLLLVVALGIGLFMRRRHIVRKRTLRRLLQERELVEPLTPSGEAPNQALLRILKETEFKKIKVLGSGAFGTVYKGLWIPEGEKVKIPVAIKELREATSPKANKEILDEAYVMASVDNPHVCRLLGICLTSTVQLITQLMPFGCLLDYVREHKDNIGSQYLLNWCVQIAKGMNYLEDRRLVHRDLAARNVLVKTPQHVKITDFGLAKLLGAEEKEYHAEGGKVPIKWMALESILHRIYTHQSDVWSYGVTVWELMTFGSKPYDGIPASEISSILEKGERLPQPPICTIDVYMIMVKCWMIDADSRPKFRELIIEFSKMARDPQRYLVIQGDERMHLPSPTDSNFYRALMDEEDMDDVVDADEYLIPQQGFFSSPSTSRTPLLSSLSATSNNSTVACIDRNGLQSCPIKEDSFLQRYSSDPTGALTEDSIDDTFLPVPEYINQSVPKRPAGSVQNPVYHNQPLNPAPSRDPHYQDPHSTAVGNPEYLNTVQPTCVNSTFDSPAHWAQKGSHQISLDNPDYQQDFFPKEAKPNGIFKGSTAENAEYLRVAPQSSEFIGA
The target in assay [11] is Fibroblast growth factor receptor 1 (Homo sapiens, UniProt P11362). Description: Inhibition of bFGFR.
Sequence of Fibroblast growth factor receptor 1 (P11362 whole entry): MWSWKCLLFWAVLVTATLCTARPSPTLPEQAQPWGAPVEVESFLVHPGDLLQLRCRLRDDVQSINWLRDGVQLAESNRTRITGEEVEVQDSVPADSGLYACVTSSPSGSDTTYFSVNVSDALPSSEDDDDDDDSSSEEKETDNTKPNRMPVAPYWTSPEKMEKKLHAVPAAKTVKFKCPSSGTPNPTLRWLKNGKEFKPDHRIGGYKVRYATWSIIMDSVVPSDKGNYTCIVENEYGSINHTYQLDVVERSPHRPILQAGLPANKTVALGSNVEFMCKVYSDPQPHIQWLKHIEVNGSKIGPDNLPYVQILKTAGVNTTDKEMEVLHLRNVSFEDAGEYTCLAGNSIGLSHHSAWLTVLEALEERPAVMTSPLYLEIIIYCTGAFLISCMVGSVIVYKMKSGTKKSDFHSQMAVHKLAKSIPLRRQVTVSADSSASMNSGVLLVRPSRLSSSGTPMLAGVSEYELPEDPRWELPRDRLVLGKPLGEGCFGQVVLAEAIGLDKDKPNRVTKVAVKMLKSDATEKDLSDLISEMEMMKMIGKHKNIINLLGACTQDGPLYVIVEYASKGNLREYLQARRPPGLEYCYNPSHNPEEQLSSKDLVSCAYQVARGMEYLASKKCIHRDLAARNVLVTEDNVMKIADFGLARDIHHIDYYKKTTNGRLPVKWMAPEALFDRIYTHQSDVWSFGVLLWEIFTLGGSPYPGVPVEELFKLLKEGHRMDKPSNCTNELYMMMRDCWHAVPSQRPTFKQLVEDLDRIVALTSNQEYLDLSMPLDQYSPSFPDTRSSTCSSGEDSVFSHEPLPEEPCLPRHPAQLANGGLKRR
The species named for assay [12] is Homo sapiens. Kind of assay: Selectivity for c-Src compared to bFGFR.
A further assay deals with A-431. Description: Inhibition of 3H-thymidine incorporation into A-431 cells. The format is functional, cell-based. To be noted: Homo sapiens.
Assay [13] has as its system HT-29. Kind of assay: Inhibition of HT-29 clonogenic growth in soft agar without pretreatment. Format: functional, cell-based. To be noted: Homo sapiens.
For assay [14], the target named is Tyrosine-protein kinase Lck (Homo sapiens, UniProt P06239). Description: Inhibition of Lck.
Sequence of Tyrosine-protein kinase Lck (P06239 whole entry): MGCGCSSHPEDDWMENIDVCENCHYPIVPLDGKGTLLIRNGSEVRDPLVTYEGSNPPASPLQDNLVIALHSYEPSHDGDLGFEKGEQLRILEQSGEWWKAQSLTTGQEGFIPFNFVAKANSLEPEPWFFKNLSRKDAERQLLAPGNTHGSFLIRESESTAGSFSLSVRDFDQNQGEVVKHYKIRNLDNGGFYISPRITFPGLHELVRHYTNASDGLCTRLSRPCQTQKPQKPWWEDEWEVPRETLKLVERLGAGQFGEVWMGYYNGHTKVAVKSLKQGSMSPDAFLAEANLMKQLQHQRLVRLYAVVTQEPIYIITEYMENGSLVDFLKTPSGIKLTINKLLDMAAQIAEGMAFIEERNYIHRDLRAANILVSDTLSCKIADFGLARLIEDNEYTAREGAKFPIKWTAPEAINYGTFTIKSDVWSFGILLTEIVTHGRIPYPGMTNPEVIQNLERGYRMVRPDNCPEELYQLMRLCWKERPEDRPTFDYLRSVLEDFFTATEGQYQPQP
The subject of assay [15] is SW-620. Description: Inhibition of SW-620 clonogenic growth in soft agar with pretreatment. To be noted: Homo sapiens. Format: functional, cell-based.
For assay [16], the system named is SW-620. Kind of assay: Inhibition of SW-620 clonogenic growth in soft agar without pretreatment. Format: functional, cell-based. To be noted: Homo sapiens.

Molecules are shown by their SMILES.

Sequence of Proto-oncogene tyrosine-protein kinase Src (P12931 2-536 limits assumed): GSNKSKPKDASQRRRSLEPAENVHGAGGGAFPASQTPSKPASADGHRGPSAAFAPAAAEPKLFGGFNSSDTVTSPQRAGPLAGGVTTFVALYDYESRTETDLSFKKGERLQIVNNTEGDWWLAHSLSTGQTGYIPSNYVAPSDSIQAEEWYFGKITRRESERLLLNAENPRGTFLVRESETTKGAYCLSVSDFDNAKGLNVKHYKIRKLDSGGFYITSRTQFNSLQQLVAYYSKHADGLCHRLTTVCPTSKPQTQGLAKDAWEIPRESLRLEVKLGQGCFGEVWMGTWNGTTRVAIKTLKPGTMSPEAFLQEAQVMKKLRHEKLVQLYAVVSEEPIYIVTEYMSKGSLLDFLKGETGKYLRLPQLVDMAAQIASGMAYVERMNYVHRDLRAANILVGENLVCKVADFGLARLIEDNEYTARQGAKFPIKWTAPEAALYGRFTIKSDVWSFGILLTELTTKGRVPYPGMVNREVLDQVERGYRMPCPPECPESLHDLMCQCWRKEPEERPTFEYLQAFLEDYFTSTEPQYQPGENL

Consider `Cc1cc(Nc2ncc3cc(-c4c(Cl)cccc4Cl)c(=O)n(C)c3n2)ccc1F`, for which the IC50 in assay [1] was 16.8 nM; in the assay with HT-29 [2], 461 nM; in the assay with HT-29 [3], 464 nM; in assay [4], 1430 nM; in the assay on NIH3T3, 170 nM; with HCT-8 [5], 450 nM. Moreover, the IC50 in the assay with SW-620 [6] turned out to be 285 nM; in the assay on HCT-8 [8], 610 nM; in the assay on HCT-8 [9] it was 260 nM; in [10], 390 nM; in assay [11] it was 934 nM; in the assay on A-431, 215 nM. Moreover, the IC50 is 1520 nM in the assay with HT-29 [13] and less than 5 nM in assay [14]. The values for the Ratio in the assay filed under Homo sapiens [7] and in the assay listed under Homo sapiens [12] were 84.9 and 55.6, respectively.
With `Cn1c(=O)c(-c2c(Cl)cccc2Cl)cc2cnc(Nc3ccc(F)cc3)nc21`, the IC50 stood at 617 nM with HT-29 [2]; 1530 nM in the assay with HT-29 [3]; 662 nM in the assay with HCT-8 [5]; 619 nM in the assay on SW-620 [6]; 1550 nM in the assay on SW-620 [15]; 402 nM with SW-620 [16]. Besides, the values for the IC50 (in the assay with HCT-8 [9]; with HT-29 [13]; in assay [14]) were 1150 nM, 1540 nM and less than 5 nM, respectively.
Turning to `CCOc1ccc(Nc2ncc3cc(-c4c(Cl)cccc4Cl)c(=O)n(C)c3n2)cc1`, the 50% inhibitory concentration (IC50) stood at 16.3 nM in assay [1]; 579 nM in the assay with HT-29 [2]; 750 nM in the assay with HT-29 [3]; 2340 nM in [4]; 382 nM with NIH3T3; 1150 nM with HCT-8 [5]. In addition, the IC50 in the assay on SW-620 [6] was found to be 660 nM; in the assay on SW-620 [15], 460 nM; with HCT-8 [8] it was 3220 nM; in the assay with SW-620 [16], 360 nM; in the assay on HCT-8 [9], 1260 nM; in [11], 451 nM. In addition, the IC50 with A-431 is 445 nM; with HT-29 [13] it was 1010 nM; in assay [14], less than 5 nM. For the same compound, the Ratio is 144 in the assay listed under Homo sapiens [7] and 27.7 in the assay filed under Homo sapiens [12].
Turning to `CSc1cccc(Nc2ncc3cc(-c4c(Cl)cccc4Cl)c(=O)n(C)c3n2)c1`, the IC50 was found to be 810 nM in the assay with HT-29 [2]; 1210 nM in the assay with HT-29 [3]; 1130 nM in the assay on HCT-8 [5]; 924 nM in the assay with SW-620 [6]; 1130 nM in the assay on SW-620 [15]; 2520 nM in the assay on HCT-8 [8]. Moreover, the IC50 was 980 nM in the assay on SW-620 [16]; 1300 nM in the assay with HCT-8 [9]; 1250 nM in [11]; 1290 nM with HT-29 [13]; less than 5 nM in assay [14].
As to `CCN(CCOc1ccc(Nc2ncc3cc(-c4c(Cl)cccc4Cl)c(=O)n(C)c3n2)cc1)C(C)=O`, the IC50 in assay [1] is 9.03 nM; in the assay with HT-29 [2], 266 nM; with HT-29 [3] it was 1740 nM; in assay [4], 463 nM; in the assay with HCT-8 [5], 1000 nM; in the assay on SW-620 [6] it was 156 nM. For the same compound, the IC50 in the assay with HCT-8 [8] was more than 5000 nM; in the assay on HCT-8 [9], more than 5000 nM; in assay [11] it was 244 nM; in the assay on HT-29 [13] it was less than 5000 nM; in assay [14] it was less than 5 nM. Moreover, the Ratio in the assay listed under Homo sapiens [7] is 51.2; in the assay filed under Homo sapiens [12], 27.
Regarding `Cn1c(=O)c(-c2c(Cl)cccc2Cl)cc2cnc(Nc3ccc(N4CCOCC4)cc3)nc21`, the IC50 was determined as 8.35 nM in assay [1]; 1210 nM in the assay on HT-29 [3]; 636 nM in assay [4]; 170 nM in the assay on NIH3T3; 530 nM with SW-620 [15]; 1380 nM with HCT-8 [8]. For the same compound, the IC50 was 470 nM with SW-620 [16]; 1260 nM in the assay with HCT-8 [9]; 98.8 nM in assay [11]; 245 nM in the assay with A-431; 1370 nM in the assay with HT-29 [13]; less than 5 nM in [14]. Also, the Ratio in the assay listed under Homo sapiens [7] came to 76.2; in the assay listed under Homo sapiens [12], 11.8.
